pEC50: −log10 of the molar value.

In the first assay the target is T1, human GPR120 (Homo sapiens, UniProt Q5NUL3).
T1 construct: host or cells: HEK293 cells co-expressing Gqi5
T1 sequence (Q5NUL3 1-361): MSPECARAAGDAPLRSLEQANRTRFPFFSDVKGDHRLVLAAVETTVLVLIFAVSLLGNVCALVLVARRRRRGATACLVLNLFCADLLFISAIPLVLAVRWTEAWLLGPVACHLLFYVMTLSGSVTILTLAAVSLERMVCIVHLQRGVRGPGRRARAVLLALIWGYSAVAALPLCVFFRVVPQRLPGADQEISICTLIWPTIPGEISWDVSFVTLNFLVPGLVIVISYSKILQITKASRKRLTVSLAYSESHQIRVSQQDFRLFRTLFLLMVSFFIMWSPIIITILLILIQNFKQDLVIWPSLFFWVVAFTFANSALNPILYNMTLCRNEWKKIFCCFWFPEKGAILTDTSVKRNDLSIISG
In words: Intracellular Ca2+ assay in human GPR120 stable cell line (FLIPR Calcium 4 dye, Flexstation). Format: cell-based. The note with it: % activity at 2.5 µM compared to the maximal activity of the compound of Example 25 at 2.5 µM (=100%); HEK293 cells co-expressing Gqi5.
On to `CC1(C)Cc2cc(F)cc(COc3c(F)cc(CC4CC4C(=O)O)cc3F)c2O1` (centres unmarked) [Example 184, 2-(3,5-difluoro-4-((5-fluoro-2,2-dimethyl-2,3-dihydrobenzofuran-7-yl)methoxy)benzyl)cyclopropanecarboxylic acid], for which the “% Activity (Ex. 25 Reference Compound)” value is 97.04%.

Staying with this assay, now noted: HEK293, % activity at 2.5 µM compared to the maximal activity of the compound of Example 25 at 2.5 µM (=100%); HEK293 cells co-expressing Gqi5; read-out: % Activity (Ex. 25 Reference Compound).
As to `Cc1cc2cccc(COc3ccc4c(c3)CCC4CC(=O)O)c2s1` (centres unmarked) [Example 152, 2-(5-((2-methylbenzo[b]thiophen-7-yl)methoxy)-2,3-dihydro-1H-inden-1-yl)acetic acid], the activity at 2.5 µM came out at 83.8%.
Same read-out and setting: the figure for `CC1(C)Cc2cc(F)cc(COc3ccc4c(c3)CCCC4CC(=O)O)c2O1` (centres unmarked) [Example 153, 2-(6-((5-fluoro-2,2-dimethyl-2,3-dihydrobenzofuran-7-yl)methoxy)-1,2,3,4-tetrahydronaphthalen-1-yl)acetic acid] is 107%; for `CC1(C)Cc2cc(Cl)cc(COc3ccc(C(C)(C)CC(=O)O)cc3)c2O1` [Example 156, 3-(4-((5-chloro-2,2-dimethyl-2,3-dihydrobenzofuran-7-yl)methoxy)phenyl)-3-methylbutanoic acid] it is 149%.
On the same count and under the same terms, the figure for `CC(Cc1ccc(OCc2cc(Cl)cc3c2OC2(CCCC2)C3)cc1)C(=O)O` (centres unmarked) [Example 159, 3-(4-((5-chloro-3H-spiro[benzofuran-2,1'-cyclopentane]-7-yl)methoxy)phenyl)-2-methylpropanoic acid] is 165%; for `CC1(C)Cc2cc(F)cc(COc3ccc(CCCC(=O)O)cc3)c2O1` [Example 160, 4-(4-((5-fluoro-2,2-dimethyl-2,3-dihydrobenzofuran-7-yl)methoxy)phenyl)butanoic acid] it is 172%; for `CC(Cc1ccc(OCc2cc(F)cc3c2OC2(CCCC2)C3)cc1)C(=O)O` (centres unmarked) [Example 162, 3-(4-((5-fluoro-3H-spiro[benzofuran-2,1'-cyclopentane]-7-yl)methoxy)phenyl)-2-methylpropanoic acid] it is 154%.
On the same count and under the same terms, the figure for `CC(CCc1ccc(OCc2cc(F)cc3c2OC(C)(C)C3)cc1)C(=O)O` (centres unmarked) [Example 171, 4-(4-((5-fluoro-2,2-dimethyl-2,3-dihydrobenzofuran-7-yl)methoxy)phenyl)-2-methylbutanoic acid] is 99%; for `COc1cc(CCC(=O)O)ccc1OCc1cc(F)cc2c1OC(C)(C)C2` [Example 173, 3-(4-((5-fluoro-2,2-dimethyl-2,3-dihydrobenzofuran-7-yl)methoxy)-3-methoxyphenyl)propanoic acid] it is 159%.
`CC1(C)Cc2cc(F)cc(COc3ccc4c(c3)CC[C@H]4CC(=O)O)c2O1` [Example 175, (S)-2-(5-((5-fluoro-2,2-dimethyl-2,3-dihydrobenzofuran-7-yl)methoxy)-2,3-dihydro-1H-inden-1-yl)acetic acid]: the activity at 2.5 µM came to 152%.
The same measure, in the same setting: the figure for `CC1(C)Cc2cc(Cl)cc(COc3ccc4c(c3)CC[C@H]4CC(=O)O)c2O1` [Example 176, (S)-2-(5-((5-chloro-2,2-dimethyl-2,3-dihydrobenzofuran-7-yl)methoxy)-2,3-dihydro-1H-inden-1-yl)acetic acid] is 138%; for `CC1(C)Cc2cc(Cl)cc(COc3ccc4c(c3)CC[C@@H]4CC(=O)O)c2O1` [Example 179, (R)-2-(5-((5-chloro-2,2-dimethyl-2,3-dihydrobenzofuran-7-yl)methoxy)-2,3-dihydro-1H-inden-1-yl)acetic acid] it is 105%.
Same read-out and setting: the figure for `CC(CC(=O)O)Cc1ccc(OCc2cc(F)cc3c2OC(C)(C)C3)cc1` (centres unmarked) [Example 182, 4-(4-((5-fluoro-2,2-dimethyl-2,3-dihydrobenzofuran-7-yl)methoxy)phenyl)-3-methylbutanoic acid] is 98.4%.
Same read-out and setting: the value for `CC1(C)Cc2c(COc3ccc4c(c3)CC[C@@H]4CC(=O)O)cc(F)cc2O1` [Example 188, (R)-2-(5-((6-fluoro-2,2-dimethyl-2,3-dihydrobenzofuran-4-yl)methoxy)-2,3-dihydro-1H-inden-1-yl)acetic acid] was 104%; that for `COc1cc(OCc2cc(Cl)cc3c2OC2(CCCC2)C3)ccc1CCC(=O)O` [Example 194, 3-(4-((5-chloro-3H-spiro[benzofuran-2,1'-cyclopentane]-7-yl)methoxy)-2-methoxyphenyl)propanoic acid] was 148%; that for `CC1(C)Cc2cc(F)cc(COc3cc(Cl)c(CCC(=O)O)c(Cl)c3)c2O1` [Example 197, 3-(2,6-dichloro-4-((5-fluoro-2,2-dimethyl-2,3-dihydrobenzofuran-7-yl)methoxy)phenyl)propanoic acid] was 151%.
Turning to `Cc1cc(OCc2cc(F)cc3c2OC(C)(C)C3)c(C)cc1CCC(=O)O` [Example 206, 3-(4-((5-fluoro-2,2-dimethyl-2,3-dihydrobenzofuran-7-yl)methoxy)-2,5-dimethylphenyl)propanoic acid], the activity at 2.5 µM came out at 111%.
Same read-out and setting: the value for `Cc1cc(OCc2cc(F)cc3c2OC(C)(C)C3)c(F)cc1CCC(=O)O` [Example 214, 3-(5-fluoro-4-((5-fluoro-2,2-dimethyl-2,3-dihydrobenzofuran-7-yl)methoxy)-2-methylphenyl)propanoic acid] was 143%; that for `CCc1c(CCC(=O)O)ccc(OCc2cc(F)cc3c2OC(C)(C)C3)c1F` [Example 216, 3-(2-ethyl-3-fluoro-4-((5-fluoro-2,2-dimethyl-2,3-dihydrobenzofuran-7-yl)methoxy)phenyl)propanoic acid] was 144%; that for `CC1(C)Cc2cc(F)cc(COc3ccc(CCC(=O)O)c4c3CCCC4)c2O1` [Example 218, 3-(4-((5-fluoro-2,2-dimethyl-2,3-dihydrobenzofuran-7-yl)methoxy)-5,6,7,8-tetrahydronaphthalen-1-yl)propanoic acid] was 114%.
The same measure, in the same setting: the figure for `CCc1cc(OCc2cc(F)cc3c2OC(C)(C)C3)c(F)cc1CCC(=O)O` [Example 220, 3-(2-ethyl-5-fluoro-4-((5-fluoro-2,2-dimethyl-2,3-dihydrobenzofuran-7-yl)methoxy)phenyl)propanoic acid] is 116%; for `[2H]C([2H])(Oc1ccc(CCC(=O)O)c(CC)c1F)c1cc(F)cc2c1OC(C)(C)C2` [Example 228, 3-(4-(dideuterio(5-fluoro-2,2-dimethyl-2,3-dihydrobenzofuran-7-yl)methoxy)-3-fluoro-2-ethylphenyl)propanoic acid] it is 119%; for `[2H]C([2H])(Oc1ccc(CC(C)C(=O)O)cc1F)c1cc(F)cc2c1OC(C)(C)C2` (centres unmarked) [Example 230, 3-(4-(dideuterio(5-fluoro-2,2-dimethyl-2,3-dihydrobenzofuran-7-yl)methoxy)-3-fluorophenyl)-2-methylpropanoic acid] it is 86.2%.
Same read-out and setting: the figure for `[2H]C([2H])(Oc1ccc(CC(C)C(=O)O)cc1C(F)(F)F)c1cc(F)cc2c1OC(C)(C)C2` (centres unmarked) [Example 231, 3-(4-(dideuterio(5-fluoro-2,2-dimethyl-2,3-dihydrobenzofuran-7-yl)methoxy)-3-(trifluoromethyl)phenyl)-2-methylpropanoic acid] is 101%; for `[2H]C([2H])(C(=O)O)C([2H])([2H])c1ccc(OCc2cc(Cl)cc3c2OC(C)(C)C3)c(F)c1` [Example 241, 3-(4-((5-chloro-2,2-dimethyl-2,3-dihydrobenzofuran-7-yl)methoxy)-3-fluorophenyl)-2,2,3,3-tetradeuteriopropanoic acid] it is 160%; for `[2H]C([2H])(C(=O)O)C([2H])([2H])c1ccc(OCc2cc(F)cc3c2OC(C)(C)C3)c(F)c1CC` [Example 243, 3-(2-ethyl-3-fluoro-4-((5-fluoro-2,2-dimethyl-2,3-dihydrobenzofuran-7-yl)methoxy)phenyl)-2,2,3,3-tetradeuteriopropanoic acid] it is 155%.
Consider `CC1(C)Cc2cc(Cl)cc(COc3ccccc3CCC(=O)O)c2O1` [Example 250, 3-(2-((5-chloro-2,2-dimethyl-2,3-dihydrobenzofuran-7-yl)methoxy)phenyl)propanoic acid], for which the activity at 2.5 µM is 10.2%.
On the same count and under the same terms, the value for `CC(Cc1cccc(OCc2cc(Cl)cc3c2OC(C)(C)C3)c1)C(=O)O` (centres unmarked) [Example 251, 3-(3-((5-chloro-2,2-dimethyl-2,3-dihydrobenzofuran-7-yl)methoxy)phenyl)-2-methylpropanoic acid] was 61.1%; that for `Cc1cc(CCC(=O)O)c(C)c(C)c1OCc1cc(F)cc2c1OC(C)(C)C2` [Example 254, 3-(4-((5-fluoro-2,2-dimethyl-2,3-dihydrobenzofuran-7-yl)methoxy)-2,3,5-trimethylphenyl) propanoic acid] was 146%.

The same assay, now with this note: eight concentrations from 0.00001 to 20 µM; changes (Max-Min) of fluorescence intensity.
What is called pEC50 is the EC50 on a negative log10 scale, so that one unit is a factor of ten. With `CC(CCc1ccc(OCc2cc(F)cc3c2OC(C)(C)C3)cc1)C(=O)O` (centres unmarked) [Example 171, 4-(4-((5-fluoro-2,2-dimethyl-2,3-dihydrobenzofuran-7-yl)methoxy)phenyl)-2-methylbutanoic acid], the negative-log EC50 (pEC50) was 5.00 to 6.00.
Turning to `CC(CCc1ccc(OCc2cc(Cl)cc3c2OC(C)(C)C3)cc1)C(=O)O` (centres unmarked) [Example 172, 4-(4-((5-chloro-2,2-dimethyl-2,3-dihydrobenzofuran-7-yl)methoxy)phenyl)-2-methylbutanoic acid], the pEC50 is no less than 6.00.
On the same count and under the same terms, the figure for `COc1cc(CCC(=O)O)ccc1OCc1cc(F)cc2c1OC(C)(C)C2` [Example 173, 3-(4-((5-fluoro-2,2-dimethyl-2,3-dihydrobenzofuran-7-yl)methoxy)-3-methoxyphenyl)propanoic acid] is 5.00 to 6.00; for `CC(CC(=O)O)Cc1ccc(OCc2cc(Cl)cc3c2OC(C)(C)C3)cc1` (centres unmarked) [Example 183, 4-(4-((5-chloro-2,2-dimethyl-2,3-dihydrobenzofuran-7-yl)methoxy)phenyl)-3-methylbutanoic acid] it is 5.00 to 6.00.
Still for that read-out and setting: the value for `CC1(C)Cc2cc(Cl)cc(COc3ccccc3CCC(=O)O)c2O1` [Example 250, 3-(2-((5-chloro-2,2-dimethyl-2,3-dihydrobenzofuran-7-yl)methoxy)phenyl)propanoic acid] was less than 5.00; that for `CC(Cc1cccc(OCc2cc(Cl)cc3c2OC(C)(C)C3)c1)C(=O)O` (centres unmarked) [Example 251, 3-(3-((5-chloro-2,2-dimethyl-2,3-dihydrobenzofuran-7-yl)methoxy)phenyl)-2-methylpropanoic acid] was 5.00 to 6.00.
